Assays:
[1] = molecular target: JAK2 (Homo sapiens (Human), UniProt O60674); assay: JAK2 Z-Lyte biochemical assay
Method: Example 3. JAK2 Z-Lyte Biochemical Assay of the Compounds of the Present Disclosure
The JAK2 Z-Lyte biochemical assay was performed according to manufacturer's instructions (Life Technologies).

[2] = molecular target: ACVR2B (Homo sapiens (Human), UniProt Q13705); assay: KINOMEscan; type: binding; conditions: read-out: percent control
From the text: (§1) Example 2. In Vitro Kinase Selectivity Profiling of the Compounds of the Present Disclosure

[3] = molecular target: BMPR1B (Homo sapiens (Human), UniProt O00238); assay: KINOMEscan; type: binding; conditions: read-out: percent control
Sequence of BMPR1B (O00238 14-502): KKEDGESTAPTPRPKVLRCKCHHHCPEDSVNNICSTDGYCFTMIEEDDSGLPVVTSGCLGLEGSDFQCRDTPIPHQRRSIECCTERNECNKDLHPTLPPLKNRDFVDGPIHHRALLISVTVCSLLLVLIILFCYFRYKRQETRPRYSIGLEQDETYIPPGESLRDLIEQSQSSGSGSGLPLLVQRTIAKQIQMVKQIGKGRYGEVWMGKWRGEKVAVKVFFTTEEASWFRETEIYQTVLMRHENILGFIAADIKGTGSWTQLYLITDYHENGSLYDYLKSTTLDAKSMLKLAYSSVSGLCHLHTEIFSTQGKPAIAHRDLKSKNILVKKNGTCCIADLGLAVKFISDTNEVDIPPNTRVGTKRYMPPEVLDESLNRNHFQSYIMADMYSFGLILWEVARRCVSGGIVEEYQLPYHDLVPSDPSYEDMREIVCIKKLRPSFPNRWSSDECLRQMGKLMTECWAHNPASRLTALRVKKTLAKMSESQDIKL
From the text: as §1

[4] = molecular target: DMPK (Homo sapiens (Human), UniProt Q09013); assay: KINOMEscan; type: binding; conditions: read-out: percent control
From the text: as §1

[5] = molecular target: EGFR(L858R, T790M) (Homo sapiens (Human), UniProt P00533, L858R/T790M); assay: KINOMEscan; type: binding; conditions: read-out: percent control
From the text: as §1

[6] = molecular target: EPHB3 (Homo sapiens (Human), UniProt P54753); assay: KINOMEscan; type: binding; conditions: read-out: percent control
From the text: as §1

[7] = molecular target: FGFR1 (Homo sapiens (Human), UniProt P11362); assay: KINOMEscan; type: binding; conditions: read-out: percent control
From the text: as §1

[8] = molecular target: FLT3-autoinhibited (Homo sapiens (Human), UniProt P36888); assay: KINOMEscan; type: binding; conditions: read-out: percent control
Sequence of FLT3-autoinhibited (P36888 564-993 limits assumed): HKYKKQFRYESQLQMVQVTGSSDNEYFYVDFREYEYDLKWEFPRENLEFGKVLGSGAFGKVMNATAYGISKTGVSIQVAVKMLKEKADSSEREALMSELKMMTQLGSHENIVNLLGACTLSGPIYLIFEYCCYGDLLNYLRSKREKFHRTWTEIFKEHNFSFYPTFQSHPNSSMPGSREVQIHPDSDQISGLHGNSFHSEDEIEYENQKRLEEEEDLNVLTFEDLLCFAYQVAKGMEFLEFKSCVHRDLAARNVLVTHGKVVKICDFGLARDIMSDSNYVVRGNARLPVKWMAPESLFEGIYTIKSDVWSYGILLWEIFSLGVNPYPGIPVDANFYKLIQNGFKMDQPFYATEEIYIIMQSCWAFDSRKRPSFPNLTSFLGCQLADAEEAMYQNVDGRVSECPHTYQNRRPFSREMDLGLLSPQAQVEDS
From the text: as §1

[9] = molecular target: IRAK1 (Homo sapiens (Human), UniProt P51617); assay: KINOMEscan; type: binding; conditions: read-out: percent control
Sequence of IRAK1 (P51617 whole entry): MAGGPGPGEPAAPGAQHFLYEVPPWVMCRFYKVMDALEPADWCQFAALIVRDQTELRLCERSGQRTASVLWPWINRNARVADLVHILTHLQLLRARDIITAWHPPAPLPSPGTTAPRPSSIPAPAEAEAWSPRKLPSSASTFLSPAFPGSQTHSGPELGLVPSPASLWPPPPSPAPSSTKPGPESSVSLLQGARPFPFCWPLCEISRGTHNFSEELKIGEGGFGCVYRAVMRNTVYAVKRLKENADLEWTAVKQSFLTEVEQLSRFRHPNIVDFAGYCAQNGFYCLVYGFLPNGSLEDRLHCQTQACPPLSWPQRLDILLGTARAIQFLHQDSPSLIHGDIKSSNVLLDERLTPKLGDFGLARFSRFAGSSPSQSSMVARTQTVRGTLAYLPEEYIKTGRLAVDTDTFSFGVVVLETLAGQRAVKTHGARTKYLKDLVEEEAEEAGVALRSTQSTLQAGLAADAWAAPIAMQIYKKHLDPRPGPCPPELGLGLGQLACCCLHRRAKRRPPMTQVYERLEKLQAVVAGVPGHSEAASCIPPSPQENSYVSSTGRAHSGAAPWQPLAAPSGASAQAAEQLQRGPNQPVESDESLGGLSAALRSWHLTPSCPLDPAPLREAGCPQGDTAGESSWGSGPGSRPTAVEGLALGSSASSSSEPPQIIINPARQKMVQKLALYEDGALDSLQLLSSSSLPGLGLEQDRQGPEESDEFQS
From the text: as §1

[10] = molecular target: LCK (Homo sapiens (Human), UniProt P06239); assay: KINOMEscan; type: binding; conditions: read-out: percent control
From the text: as §1

[11] = molecular target: LRRK2(G20195) (Homo sapiens (Human), UniProt Q5S007, G2019S); assay: KINOMEscan; type: binding; conditions: read-out: percent control
From the text: as §1

[12] = molecular target: MAP3K15 (Homo sapiens (Human), UniProt Q6ZN16); assay: KINOMEscan; type: binding; conditions: read-out: percent control
From the text: as §1

[13] = molecular target: MAST1 (Homo sapiens (Human), UniProt Q9Y2H9); assay: KINOMEscan; type: binding; conditions: read-out: percent control
From the text: as §1

[14] = molecular target: MEK4 (Homo sapiens (Human), UniProt P45985); assay: KINOMEscan; type: binding; conditions: read-out: percent control
From the text: as §1

[15] = molecular target: PDPK1 (Homo sapiens (Human), UniProt O15530); assay: KINOMEscan; type: binding; conditions: read-out: percent control
Sequence of PDPK1 (O15530 whole entry): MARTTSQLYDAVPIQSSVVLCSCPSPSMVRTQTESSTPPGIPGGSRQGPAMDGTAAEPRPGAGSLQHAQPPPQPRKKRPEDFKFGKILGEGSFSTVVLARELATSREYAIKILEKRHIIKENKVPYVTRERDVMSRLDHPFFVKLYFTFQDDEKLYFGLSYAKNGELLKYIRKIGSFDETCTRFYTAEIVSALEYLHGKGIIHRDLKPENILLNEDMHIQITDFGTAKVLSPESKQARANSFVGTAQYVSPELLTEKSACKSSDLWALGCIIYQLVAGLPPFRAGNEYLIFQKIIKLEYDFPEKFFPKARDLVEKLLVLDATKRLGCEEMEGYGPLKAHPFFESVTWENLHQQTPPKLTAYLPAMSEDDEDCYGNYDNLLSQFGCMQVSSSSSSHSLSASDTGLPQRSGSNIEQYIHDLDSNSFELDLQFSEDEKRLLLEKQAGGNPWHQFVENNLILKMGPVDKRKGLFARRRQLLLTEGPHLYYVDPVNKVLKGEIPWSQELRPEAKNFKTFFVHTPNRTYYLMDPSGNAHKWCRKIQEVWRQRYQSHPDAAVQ
From the text: as §1

[16] = molecular target: PIK3C2B (Homo sapiens (Human), UniProt O00750); assay: KINOMEscan; type: binding; conditions: read-out: percent control
From the text: as §1

[17] = molecular target: PIK3CA(Q546K) (Homo sapiens (Human), UniProt P42336, Q546K); assay: KINOMEscan; type: binding; conditions: read-out: percent control
Sequence of PIK3CA(Q546K) (P42336 whole entry Q546K): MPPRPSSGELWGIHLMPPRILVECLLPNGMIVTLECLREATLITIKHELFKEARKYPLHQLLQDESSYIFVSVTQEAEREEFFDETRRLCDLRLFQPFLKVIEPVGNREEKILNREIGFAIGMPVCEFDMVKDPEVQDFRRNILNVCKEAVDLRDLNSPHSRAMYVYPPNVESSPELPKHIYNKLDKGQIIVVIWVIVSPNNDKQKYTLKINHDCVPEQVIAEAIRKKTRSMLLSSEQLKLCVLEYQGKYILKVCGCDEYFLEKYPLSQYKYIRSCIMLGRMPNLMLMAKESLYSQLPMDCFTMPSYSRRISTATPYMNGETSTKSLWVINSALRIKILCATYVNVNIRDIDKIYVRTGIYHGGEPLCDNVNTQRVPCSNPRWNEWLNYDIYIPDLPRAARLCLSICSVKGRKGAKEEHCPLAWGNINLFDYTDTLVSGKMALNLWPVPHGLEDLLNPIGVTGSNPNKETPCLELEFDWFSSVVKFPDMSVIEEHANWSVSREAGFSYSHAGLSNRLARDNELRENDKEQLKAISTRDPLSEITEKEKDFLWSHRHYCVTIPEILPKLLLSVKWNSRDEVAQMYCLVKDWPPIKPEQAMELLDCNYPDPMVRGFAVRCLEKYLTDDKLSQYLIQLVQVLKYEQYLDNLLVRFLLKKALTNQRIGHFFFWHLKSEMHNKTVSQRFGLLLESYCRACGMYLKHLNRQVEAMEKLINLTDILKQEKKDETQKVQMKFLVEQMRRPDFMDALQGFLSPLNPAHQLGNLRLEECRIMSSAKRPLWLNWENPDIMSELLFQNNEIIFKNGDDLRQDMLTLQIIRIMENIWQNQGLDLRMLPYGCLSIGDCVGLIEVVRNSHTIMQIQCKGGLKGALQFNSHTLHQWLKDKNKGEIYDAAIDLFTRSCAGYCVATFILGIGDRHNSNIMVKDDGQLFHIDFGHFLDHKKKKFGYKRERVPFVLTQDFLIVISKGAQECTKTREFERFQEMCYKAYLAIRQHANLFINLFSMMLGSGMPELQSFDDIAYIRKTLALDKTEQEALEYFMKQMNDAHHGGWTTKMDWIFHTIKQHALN
From the text: as §1

[18] = molecular target: PKN1 (Homo sapiens (Human), UniProt Q16512); assay: KINOMEscan; type: binding; conditions: read-out: percent control
From the text: as §1

[19] = molecular target: PKNB(M.tuberculosis) (Mycobacterium tuberculosis (strain ATCC 25618 / H37Rv), UniProt P9WI81); assay: KINOMEscan; type: binding; conditions: read-out: percent control
From the text: as §1

[20] = molecular target: PRKCE (Homo sapiens (Human), UniProt Q02156); assay: KINOMEscan; type: binding; conditions: read-out: percent control
From the text: as §1

[21] = molecular target: PRKCQ (Homo sapiens (Human), UniProt Q04759); assay: KINOMEscan; type: binding; conditions: read-out: percent control
From the text: as §1

[22] = molecular target: STK39 (Homo sapiens (Human), UniProt Q9UEW8); assay: KINOMEscan; type: binding; conditions: read-out: percent control
From the text: as §1

[23] = molecular target: TGFBR2 (Homo sapiens (Human), UniProt P37173); assay: KINOMEscan; type: binding; conditions: read-out: percent control
From the text: as §1

[24] = molecular target: TYK2(JH1domain-catalytic) (Homo sapiens (Human), UniProt P29597); assay: KINOMEscan; type: binding; conditions: read-out: percent control
Sequence of TYK2(JH1domain-catalytic) (P29597 897-1176 limits assumed): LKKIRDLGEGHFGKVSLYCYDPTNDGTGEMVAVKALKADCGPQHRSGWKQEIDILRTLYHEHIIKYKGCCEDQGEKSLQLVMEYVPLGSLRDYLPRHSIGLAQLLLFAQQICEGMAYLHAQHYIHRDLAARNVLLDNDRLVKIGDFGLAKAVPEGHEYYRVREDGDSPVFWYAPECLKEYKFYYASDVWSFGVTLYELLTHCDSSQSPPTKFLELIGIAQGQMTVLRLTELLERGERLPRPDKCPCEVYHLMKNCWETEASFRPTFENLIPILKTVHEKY
From the text: as §1

[25] = molecular target: TYK2(JH2domain-pseudokinase) (Homo sapiens (Human), UniProt P29597); assay: KINOMEscan; type: binding; conditions: read-out: percent control
Sequence of TYK2(JH2domain-pseudokinase) (P29597 589-875 limits assumed): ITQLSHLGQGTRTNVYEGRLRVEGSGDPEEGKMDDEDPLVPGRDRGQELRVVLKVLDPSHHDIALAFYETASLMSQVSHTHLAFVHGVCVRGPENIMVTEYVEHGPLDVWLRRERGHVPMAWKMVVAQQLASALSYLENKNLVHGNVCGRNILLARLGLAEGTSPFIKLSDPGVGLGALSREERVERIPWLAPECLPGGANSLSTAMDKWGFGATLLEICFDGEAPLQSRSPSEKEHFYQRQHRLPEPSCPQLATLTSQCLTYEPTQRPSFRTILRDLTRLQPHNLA
From the text: as §1

[26] = molecular target: WNK3 (Homo sapiens (Human), UniProt Q9BYP7); assay: KINOMEscan; type: binding; conditions: read-out: percent control
From the text: as §1

[27] = molecular target: YANK3 (Homo sapiens (Human), UniProt Q86UX6); assay: KINOMEscan; type: binding; conditions: read-out: percent control
Sequence of YANK3 (Q86UX6 whole entry): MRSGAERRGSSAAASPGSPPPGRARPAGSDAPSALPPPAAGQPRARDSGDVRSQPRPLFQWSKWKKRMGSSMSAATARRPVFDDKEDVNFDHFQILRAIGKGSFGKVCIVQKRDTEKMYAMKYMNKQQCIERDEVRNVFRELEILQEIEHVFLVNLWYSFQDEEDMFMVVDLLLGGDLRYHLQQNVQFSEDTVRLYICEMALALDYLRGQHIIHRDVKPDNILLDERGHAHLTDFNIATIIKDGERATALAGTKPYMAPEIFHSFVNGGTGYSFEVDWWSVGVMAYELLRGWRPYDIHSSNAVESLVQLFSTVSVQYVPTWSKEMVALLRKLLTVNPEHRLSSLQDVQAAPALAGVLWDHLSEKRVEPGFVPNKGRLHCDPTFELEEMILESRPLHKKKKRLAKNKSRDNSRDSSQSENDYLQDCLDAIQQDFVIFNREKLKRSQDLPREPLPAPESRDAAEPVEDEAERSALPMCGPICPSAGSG
From the text: as §1

Sequence of ACVR2B (Q13705 19-512): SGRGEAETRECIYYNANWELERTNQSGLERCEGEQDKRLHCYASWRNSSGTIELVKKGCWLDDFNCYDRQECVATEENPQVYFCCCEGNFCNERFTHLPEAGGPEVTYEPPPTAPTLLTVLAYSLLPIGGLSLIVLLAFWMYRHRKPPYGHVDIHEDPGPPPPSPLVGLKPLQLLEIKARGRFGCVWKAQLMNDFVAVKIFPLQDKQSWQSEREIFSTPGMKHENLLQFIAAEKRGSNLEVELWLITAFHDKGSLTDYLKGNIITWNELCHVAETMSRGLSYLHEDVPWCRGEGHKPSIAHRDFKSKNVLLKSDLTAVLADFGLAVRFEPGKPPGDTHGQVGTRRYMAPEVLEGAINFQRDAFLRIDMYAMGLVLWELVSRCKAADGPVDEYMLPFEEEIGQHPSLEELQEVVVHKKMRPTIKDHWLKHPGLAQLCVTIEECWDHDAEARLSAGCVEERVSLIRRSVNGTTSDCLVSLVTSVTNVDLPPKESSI

| SMILES | IC50 [1] [nM] | remaining binding at 1 µM [2] [%] | remaining binding at 1 µM [3] [%] | remaining binding at 1 µM [4] [%] | remaining binding at 1 µM [5] [%] | remaining binding at 1 µM [6] [%] | remaining binding at 1 µM [7] [%] | remaining binding at 1 µM [8] [%] | remaining binding at 1 µM [9] [%] | remaining binding at 1 µM [10] [%] | remaining binding at 1 µM [11] [%] | remaining binding at 1 µM [12] [%] | remaining binding at 1 µM [13] [%] | remaining binding at 1 µM [14] [%] | remaining binding at 1 µM [15] [%] | remaining binding at 1 µM [16] [%] | remaining binding at 1 µM [17] [%] | remaining binding at 1 µM [18] [%] | remaining binding at 1 µM [19] [%] | remaining binding at 1 µM [20] [%] | further results |
| --- | --- | --- | --- | --- | --- | --- | --- | --- | --- | --- | --- | --- | --- | --- | --- | --- | --- | --- | --- | --- | --- |
| CCN1CCN(Cc2ccc(Nc3nc4ccc(Oc5ccnc(NC(C)=O)c5)cc4n3C)cc2C(F)(F)F)CC1 [Compound I-2] | 794 | 97 | 84 | 94 | 100 | 96 | 86 | 100 | 79 | 18 | 100 | 88 | 74 | 97 | 94 | 85 | 100 | 57 | 80 | 100 | remaining binding at 1 µM [21]: 67%; remaining binding at 1 µM [22]: 62%; remaining binding at 1 µM [23]: 90%; remaining binding at 1 µM [24]: 23%; remaining binding at 1 µM [25]: 100%; remaining binding at 1 µM [26]: 100%; remaining binding at 1 µM [27]: 100% |
| CCN1CCN(Cc2ccc(Nc3nc4ccc(Oc5ccnc(NC(C)=O)c5)c(C)c4n3C)cc2C(F)(F)F)CC1 [Compound I-6, N-(4-(2-(4-((4-ethylpiperazin-1-yl)methyl)-3-(trifluoromethyl)phenylamino)-1,7-dimethyl-1H-benzo[d]imidazol-6-yloxy)pyridin-2-yl)acetamide] | 980 | 100 | 89 | 100 | 100 | 100 | 75 | 66 | 38 | 1.6 | 69 | 60 | 100 | 91 | 93 | 97 | 75 | 100 | 82 | 92 | remaining binding at 1 µM [21]: 97%; remaining binding at 1 µM [22]: 93%; remaining binding at 1 µM [23]: 81%; remaining binding at 1 µM [24]: 36%; remaining binding at 1 µM [25]: 76%; remaining binding at 1 µM [26]: 100%; remaining binding at 1 µM [27]: 89% |
